#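 Following 48 hours of exposure in 96-well plates, responses at five concentrations were used to interpolate endpoints linearly. GI50 = concentration required for 50% inhibition of growth. The concentration for full growth arrest is given as TGI.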
# How the values were obtained:
# Test in all cases: NCI tumour cell line growth inhibition, 48 h
# T-47D breast = test system: T-47D breast
# HOP-92 NSCLC = test system: HOP-92 NSCLC
# NCI/ADR-RES ovarian = test system: NCI/ADR-RES ovarian
# RXF 393 renal = test system: RXF 393 renal
# COLO 205 colon = test system: COLO 205 colon
# UACC-257 melanoma = test system: UACC-257 melanoma
# NCI-H226 lung = test system: NCI-H226 lung
# SNB-19 CNS = test system: SNB-19 CNS
# HCT-116 colon = test system: HCT-116 colon
# SK-MEL-2 melanoma = test system: SK-MEL-2 melanoma
SMILES,TGI (T-47D breast) [µM],TGI (HOP-92 NSCLC) [µM],TGI (NCI/ADR-RES ovarian) [µM],TGI (RXF 393 renal) [µM],TGI (COLO 205 colon) [µM],TGI (UACC-257 melanoma) [µM],TGI (NCI-H226 lung) [µM],TGI (SNB-19 CNS) [µM],TGI (HCT-116 colon) [µM],TGI (SK-MEL-2 melanoma) [µM],GI50 (T-47D breast) [µM],GI50 (HOP-92 NSCLC) [µM],GI50 (NCI/ADR-RES ovarian) [µM],GI50 (RXF 393 renal) [µM],GI50 (COLO 205 colon) [µM],GI50 (UACC-257 melanoma) [µM],GI50 (NCI-H226 lung) [µM],GI50 (SNB-19 CNS) [µM],GI50 (HCT-116 colon) [µM],GI50 (SK-MEL-2 melanoma) [µM]
C=C1C(=O)OC2CC(C)C3CC(O)OC(OCC)C3(C)CC12 (stereo unspecified),33.1,35.1,39.2,28.3,33.5,31.5,63.1,> 75.5,26,29.8,–,–,–,–,–,–,–,–,–,–
CC1=Nc2ccccc2/C1=C\c1c(C)[nH]c2ccccc12,29.4,17.4,38.3,33.2,53.2,30.3,33.2,35.5,24.2,47.3,–,–,–,–,–,–,–,–,–,–
S=c1nc(N/N=C/c2ccco2)c2cn[nH]c2[nH]1,48.1,> 100,> 100,> 100,90.8,> 100,> 100,> 100,> 100,> 100,1.95,71.4,> 100,> 100,29.5,> 100,> 100,> 100,25,> 100
Cc1nc2ccc(NC(=O)CCNC(=O)CCCc3ccc(CC(C(=O)O)C(=O)O)cc3)cc2s1,> 100,> 100,> 100,> 100,> 100,> 100,> 100,> 100,> 100,> 100,> 100,> 100,> 100,> 100,> 100,> 100,> 100,> 100,> 100,> 100
OCc1ccc(-c2cscc2-c2ccc(CO)o2)o1,9.65,> 94,> 100,> 89.5,4.83,1.91,0.485,> 100,> 69.5,> 100,1.46,16.1,32.9,> 20.8,1.97,0.507,0.112,> 100,1.65,22.5
O=c1/c(=C\c2ccc(F)cc2)sc2n1C(c1ccc(F)cc1)C1=C(N=2)c2ccc3ccccc3c2OCC1 (stereo unspecified),> 100,> 100,> 100,> 100,> 100,> 100,> 100,> 100,> 100,> 100,> 100,–,> 100,> 100,> 100,> 100,> 100,> 100,> 100,> 100
COc1ncnc(S(=O)(=O)c2ccc(N=C3C(=O)N(CN4CCN(c5cc6c(cc5F)c(=O)c(C(=O)O)cn6C5CC5)CC4)c4ccc(Cl)cc43)cc2)c1OC,> 50,> 50,> 50,> 50,> 50,> 50,> 50,> 50,> 50,> 50,> 50,> 50,> 50,> 50,> 50,46.4,38.9,> 50,26.4,> 50
C=CC(=O)Nc1cc(N2CCN(CC)CC2)ccc1Nc1cc(N(C)C(=O)Nc2c(Cl)c(OC)cc(OC)c2Cl)ncn1,26.4,21.7,70.5,9.76,18.3,30.1,35.8,17.5,14.2,27.3,3.3,4.94,20.5,2.98,4.16,13.5,14.2,5.05,3.37,13
COc1ccc(-c2nc(-c3nc4ccc(F)cc4[nH]3)c3ccccn23)cc1,20.8,43.8,36.5,45.3,> 100,57.2,9.06,58.6,17.8,54.8,3.55,3.67,6.5,6.05,78.1,9.15,2.72,11.2,3.61,10.1
COc1cc2c(cc1O)CC1c3c(cc(O)c(OC)c3-2)CCN1C (stereo unspecified),> 100,> 100,> 100,> 100,> 100,> 100,> 100,> 100,> 100,> 100,–,–,–,–,–,–,–,–,–,–
CC1=Cc2ccc(C)cc2C(=O)C1=O,5.36,17.6,46.8,3.27,16.3,15.8,> 100,45.2,10.8,52.9,–,–,–,–,–,–,–,–,–,–
CC(C)Cc1ccc(C(C)CC2=CCC(CN(C)C)C2=O)cc1 (stereo unspecified),4.7,8.41,43.7,14.3,6.77,26.9,33.7,29.5,11.1,26.9,–,–,–,–,–,–,–,–,–,–
COc1ccc(C(O)c2cc3c(N)c(C(=O)Nc4cccc(Cl)c4)sc3nc2C)cc1 (stereo unspecified),31.9,> 39.9,> 36.1,1.76,25.2,81,> 43,> 46.8,> 33.1,42.7,1.15,3.66,1.11,0.31,2.79,8.6,1.63,1.47,0.921,1.29
C1CC2CN(CCCN3CCOCC3)C(C1)O2 (stereo unspecified),> 100,> 100,> 100,> 100,> 100,> 100,> 100,> 100,> 100,> 100,–,–,–,–,–,–,–,–,–,–
Cc1ccc(N=Nc2c(O)ccc3ccccc23)cc1,> 100,> 100,> 100,> 100,> 100,> 100,> 100,> 100,> 100,> 100,–,–,–,–,–,–,–,–,–,–
Cc1cc(O)c(C2=NN(c3ccc(S(N)(=O)=O)cc3)C(c3ccc(Cl)cc3)C2)c(C)c1Cl (stereo unspecified),14.9,17.6,17,21.1,3.31,26.8,24.1,24.9,12.9,27.6,2.93,3.74,4.63,5.83,1.69,11.9,10.5,12.4,3.47,11.9
COc1cc(NC(=O)CCSc2nc3ccc(C)cc3c(=O)n2Cc2ccccc2)cc(OC)c1OC,> 100,7.99,> 100,16.6,> 100,> 100,12.3,18.5,> 100,27.5,7.04,1.9,9.25,3.48,> 100,4.96,2.66,3.17,4.35,4.4
O=C(NCCc1ccccn1)OCc1nc2nc(Cl)nc(N3CCOCC3)c2[nH]1,6.48,3.81,6.22,2.4,6.12,5.26,3.29,16.5,2.09,15.6,2.13,1.15,1.44,1.12,2.44,1.87,1.61,4.58,0.816,4.16
O=C(Oc1ccc(CO[N+](=O)[O-])cc1)c1ccccc1,0.323,0.313,0.434,0.319,0.301,0.532,0.518,0.706,0.241,0.322,0.137,0.151,0.195,0.165,0.128,0.207,0.214,0.202,0.101,0.162
O=C1CCC(N2C(=O)c3ccccc3C2=O)C(=O)N1 (stereo unspecified),> 100,> 100,> 100,> 100,> 100,> 100,> 100,> 100,> 100,> 100,–,–,–,–,–,–,> 100,–,–,–
COC(=O)C1C(O)C(C)C(O)C(C)C=C(C)C2=C3C(=C(C)C(=O)c4c(O)c(c(C)c(OC(C)=O)c43)NC(=O)C(C)=C/C=C\C(C)C(O)C(C)C1O)OCO2 (stereo unspecified),> 100,> 100,> 100,89.8,63.6,37.4,> 100,> 100,> 100,74.2,–,–,–,–,–,–,–,–,–,–
CCOc1c(N=Nc2ccccc2Cl)c(-c2ccccc2)nn1C(=S)S,> 100,> 100,> 100,> 100,47.5,> 100,93.8,> 100,> 100,> 100,–,–,–,–,–,–,–,–,–,–
O=c1[nH]c2nc(NC3CCOCC3)ncc2cc1Oc1ccc(F)cc1F,> 25,> 25,> 25,> 25,> 25,> 25,> 25,> 25,> 25,> 25,> 25,> 25,> 25,> 25,> 25,> 25,> 25,> 25,> 25,> 25
COc1cc2c(cc1OCCCCCCN1CCN(CC(=O)Nc3ccc(Cl)cc3C(=O)c3ccccc3Cl)CC1)N=CC1CCCN1C2=O (stereo unspecified),0.415,0.396,2.48,0.324,0.314,0.775,1.45,0.632,0.481,0.556,0.164,0.177,0.733,0.168,0.154,0.2,0.575,0.244,0.183,0.217
c1cncc(CNCc2cccnc2)c1,> 100,> 100,> 100,> 100,> 100,> 100,> 100,> 100,> 100,> 100,–,–,–,–,–,–,–,–,–,–
O=c1cc(N/N=C/c2ccc(F)cc2)c2cc(Cl)ccc2[nH]1,> 100,45.9,> 100,> 100,43.5,56.5,> 100,> 100,> 100,69.3,18.6,14,23.5,23.7,18.2,15.5,14.6,23.5,17.4,18.3
O=P1(S)OC[C@H]2O[C@@H]3[C@H](F)[C@@H]2OP(O)(=S)OC[C@H]2O[C@H]([C@H](F)[C@@H]2O1)n1cnc2c(ncnc21)NC/C=C/CNc1ncnc2c1ncn23 (stereo partly specified),> 100,> 100,> 100,> 100,> 100,> 100,> 100,> 100,> 100,> 100,> 100,–,> 100,0.764,> 100,0.316,0.652,> 100,> 100,> 100
COC(=O)COc1ccc(/C=C2/N=C(c3ccccc3)N(c3c(C)n(C)n(-c4ccccc4)c3=O)C2=O)cc1,61.2,55.1,> 100,36.5,35.9,–,63.5,> 100,> 100,38,21.3,25.1,54.8,19.4,16,–,25.3,36.3,32.4,19.1
CN(C)CCSS(=O)(=O)O,> 100,> 100,> 100,> 100,> 100,–,> 100,> 100,> 100,> 100,–,–,–,–,–,–,–,–,–,–

# Source: PubChem BioAssay (NCI)
